Experimental data: patent US20060292255A1, “Pharmaceutical and therapeutic compositions derived from Garcinia mangostana L plant” (priority 2004, published 2006)

Experiments:
[1] = tested on: cAMP phosphodiesterase; conditions: Chairungsrilerd and Takeuchi et al., 1996; cited from earlier work
[2] = tested on: DNA topoisomerase; conditions: Tosa et al., 1997; cited from earlier work
[3] = biological target: COX 1 (Homo sapiens, UniProt P23219); conditions: Nakatani et al., 2002, 2004; cited from earlier work
Sequence of COX 1 (P23219 24-599): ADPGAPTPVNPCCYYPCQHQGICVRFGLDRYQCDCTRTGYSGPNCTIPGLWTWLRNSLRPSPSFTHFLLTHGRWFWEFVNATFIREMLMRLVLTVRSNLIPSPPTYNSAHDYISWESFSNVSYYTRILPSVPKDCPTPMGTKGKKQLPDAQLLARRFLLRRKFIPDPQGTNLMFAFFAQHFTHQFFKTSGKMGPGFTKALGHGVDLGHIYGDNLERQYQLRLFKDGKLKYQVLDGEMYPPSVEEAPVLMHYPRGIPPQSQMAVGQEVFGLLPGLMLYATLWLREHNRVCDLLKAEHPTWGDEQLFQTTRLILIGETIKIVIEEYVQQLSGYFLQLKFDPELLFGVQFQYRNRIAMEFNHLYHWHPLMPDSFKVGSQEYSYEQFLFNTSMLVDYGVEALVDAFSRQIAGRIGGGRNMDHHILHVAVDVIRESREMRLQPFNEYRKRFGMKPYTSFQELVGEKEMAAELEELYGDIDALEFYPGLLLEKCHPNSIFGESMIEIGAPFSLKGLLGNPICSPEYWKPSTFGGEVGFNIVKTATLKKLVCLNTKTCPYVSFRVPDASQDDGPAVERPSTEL

[4] = tested on: serotonin receptors; conditions: Chairungsrilerd et al., 1996, 1998; cited from earlier work
[5] = tested on: L-929 mouse fibroblast cells; assay: Toxicity Study 1: cytotoxicity of serially diluted extract, microscopic scoring; assay type: cell-based; conditions: control media/extracts undiluted; triplicate wells
Method: The purpose of this study was to evaluate an extract of mangosteen for its level of cytotoxicity in a mammalian system. Accordingly, a serially diluted extract of a 10% mangosteen pericarp test article for cytotoxicity to mammalian cells in culture (L-929 mouse fibroblast cells, from the American Type Culture Collection: CCL-1). The test article, originally a 10% mangosteen preparation) was incubated in an appropriate volume of cell culture medium (Earle's Minimal Essential Medium, E-MEM) in a sterile vessel for 24 to 25 hours at 37 ±1° C. At the end of the extraction period, the extract was decanted from the test article. A series of eight (8) dilutions of the extract was prepared in culture medium in a two-fold dilution sequence. After the dilutions were prepared, the maintenance culture medium was removed from test culture wells and replaced with 1 ml of article test dilutions. […] The cultures were evaluated for cytotoxic effects by microscopic examination at 24, 48, and 72±4 hours of incubation, and the results scored and recorded. […]
Criteria for evaluating cytotoxicity included morphologic changes in cells, such as granulation, crenation, or rounding, and loss of viable cells from the monolayer by lysis or detachment. […] Degrees of toxicity are scored according to the scheme in Table 2: […]

[6] = tested on: mammalian cells in culture; assay: Toxicity Study 2: cytotoxicity of serially diluted extract, microscopic scoring; assay type: cell-based; conditions: control media/extracts undiluted
Method: The purpose of this study was to evaluate a serially diluted extract of a 40% mangosteen pericarp test article for cytotoxicity to mammalian cells in culture. The test article was incubated in an appropriate volume of E-MEM in a sterile vessel for 24 to 25 hours at 37 f 1° C. After measures were taken to create a clear supernatant, a series of eight (8) dilutions of the extract were prepared in E-MEM in a two-fold dilution sequence. After the dilutions were prepared, the maintenance culture media was removed from test culture wells and replaced with 1 ml of test media dilutions in triplicate wells. The positive control media, test article extract, and control extracts were added at the same time to the culture plate in triplicate wells. The plates were incubated for 72 hours at 37±1° C. in a humidified atmosphere of 5±1% CO2 in air. The cultures were evaluated for cytotoxic effects by microscopic examination at 24,48 and 72±4 hours of incubation and the results scored and recorded. After the 24 hour extraction the liquid was transferred to a 50 mL conical tube and centrifuged for 10 minutes at 3000 rpm. A small pellet of powder created by the separation was discarded, the resultant supernatant was clear with a light brown color and a pH of 7.5.
Criteria for evaluating cytotoxicity included morphologic changes in cells, such as granulation, crenation, or rounding, and loss of viable cells from the monolayer by lysis or detachment. The validity of the test requires that negative control cultures maintain a healthy normal appearance throughout the duration of the test. Degrees of toxicity are scored as in Table 1, above: […]

COc1c(O)cc2oc3cc4c(c(O)c3c(=O)c2c1CC=C(C)C)CC(O)C(C)(C)O4 (centres unmarked) [Mangostanol]
inhibition of cAMP phosphodiesterase [1]: strong inhibition

CC(C)=CCc1c(O)cc2oc3cc(O)c(O)c(CC=C(C)C)c3c(=O)c2c1O [gamma-mangostin]
inhibition of DNA topoisomerase [2]: inhibits | inhibition of the activity of cyclooxygenase COX 1 [3]: directly inhibit the activity | action on serotonin receptors [4]: antagonist

[Cl][Cd][Cl] [Positive Control, CdCl2]
Cytotoxicity Scores at 72 Hr [5]: 4/4/4 | Cytoxicity Scores 24 Hr [6]: 4/4/4 | Cytoxicity Scores 48 Hr [6]: 4/4/4 | Cytoxicity Scores 72 Hr [6]: 4/4/4
